From patent US6872727B1, “Polycyclic pyrimidine -2,4(1H,3H)-diones with functionalized alkyl residues at the 1- and/or 3-position(s); methods for their synthesis and pharmaceutical preparation” (Privates Institut fur Biomedizinische Forschung und Beratung, priority 1999, dated 2005)

Experiments:
Assay type in all cases: biochemical
[1] = target: T1, catalytic domain of human matrix metalloproteinase-8 (MMP-8; neutrophil collagenase) (Homo sapiens, UniProt P22894); assay: Inhibition of catalytic domain of human MMP-8, fluorimetric assay, Dixon plot; settings: recombinant catalytic domain, Mca-Pro-Leu-Gly-Leu-Dap(Dnp)-Ala-Arg-NH2 substrate
T1 construct: express heterologously only the catalytic domain, rather than the entire MMP-8, in Escherichia coli; made in house; host or cells: Escherichia coli
Description: The catalytic domain of MMP-8 was chosen as a further test enzyme because of its high stability and constitutive activity, obviating the need for enzymatic or chemical activation, which is a well-known source of error, e.g. the commonly used organomercurial compounds used to activate pro-MMPs may interfere in subsequent assays or affect the activity of the enzyme, leading to erroneous interpretation of results. The cloning strategy was designed to express heterologously only the catalytic domain, rather than the entire MMP-8, in Escherichia coli. With the so-constructed expressed catalytic domain, we obtained a stable enzymatically active, highly pure enzyme that is well suited for routine investigation of the efficacy of the synthetic inhibitors and provides highly reproducible test results.
The cloning and expression of the recombinant catalytic domain of MMP-8 follows the protocol developed by Schnierer et al. (Schnierer, S., Kleine, T., Gote, T., Hilleman, A., Knäuper, V., and Tschesche, H., 1993, The recombinant catalytic domain of human neutrophil collagenase lacks type I collagen substrate specificity, Biochem. Biophys. Res. Commun. 191, 319-326).
(§1) The enzymatic cleavage of commercially available synthetic internally quenched fluorigenic peptide substrates such as 7-methylcoumarin-4-yl-acetyl-prolyleucyl-glycyl-leucyl-(dinitrophenyl-L-α,β-diaminopropionyl)-alanyl-arginylamide (Mca-Pro-Leu-Gly-Leu-Dap(Dnp)-Ala-Arg-NH2) at the scissile -Gly-Leu-peptide bond separates the fluorescent Mca group from the dinitrophenol quencher, resulting in a strong linear increase in fluorescence intensity that can be readily measured in a fluorimeter (λexitation328 nm, λemission 393 nm) over the first few minutes of the reaction. The specificity of the assay for matrix metalloproteinases is provided by the type I collagen-derived sequence -Pro-Leu-Gly-Leu- in the synthetic substrate, as well as by the incubation conditions. To test the efficacy of the synthetic collagenase/MMP inhibitors, the residual enzymatic activity remaining after an incubation of enzyme plus different amounts of inhibitor is measured at a fixed enzyme and substrate concentration. For each inhibitor, three test series at different fixed substrate concentrations were carried out. From the time-dependent increase in fluorescence intensity measured, the velocity (v) of the enzymatic activity can be calculated as increase in arbitrary fluorescence intensity units per minute. The inhibition constant Ki is calculated graphically by the method of Dixon (1953) by plotting the reciprocal of the reaction velocity 1/v on the ordinate, and the inhibitor concentration on the abscissa. The x-intercept of the linear plot is defined as minus K1 value.
(§2) 1984 μl assay buffer (100 mM Tris-HCl pH 7,5, 100 mM NaCl, 10 mM CaCl2, 0,05% Brij 35) • 2 μl inhibitor dissolved in DMSO, or DMSO alone as a solvent control • 4 μl enzyme (MMP-2, MMP-9, or the catalytic domain of MMP-8) • 10 μl Mca-Pro-Leu-Gly-Leu-Dap(Dnp)-Ala-Arg-NH2 in DMSO Method • 1. Incubate buffer, enzyme, and inhibitor for 5 min at room temperature, with stirring. • 2. Start the reaction by adding 10 μl substrate in DMSO • 3. Record the increase in fluorescence intensity over 2 min. Confirmation of the Inhibitory Activity by Protein Zymographic Analysis

[2] = target: Clostridium histolyticum collagenase (EC 3.4.24.3); assay: Inhibition of Clostridium histolyticum collagenase, spectrophotometric FALGPA assay; settings: chromogenic substrate FALGPA; read-out: C. histolyticum (50% inhibition)
Description: The activity of Clostidium histolyticum collagenase may be readily determined by a simple spectrophotometric assay using the synthetic chromogenic peptide substrate N-(3-[2-furyl]acryloyi)-leucine-glycine-proline-alanine (FALGPA; Van Hart, H. E. and Steinbrink, D. R. 1981, Anal. Biochem. 113, 356). The degree of inhibition of the degradation of this chromogenic substrate by the addition of the various test substances described in Table 1 may be easily quantified. The enzyme and substrate are commercially available.

[3] = target: T2, human matrix metalloproteinase-2 (MMP-2; gelatinase A) (Homo sapiens, UniProt P08253); assay: Inhibition of human matrix metalloproteinase-2 (gelatinase A); settings: trypsin-activated MMP-2 from human dermal fibroblast culture supernatant; read-out: MMP-2 (50% inhibition)
T2 construct: to prepare the enzymatically active mature form of the enzyme; endogenous in cells; host or cells: human dermal fibroblasts (secreted into culture supernatant)
T2 sequence (P08253 110-660): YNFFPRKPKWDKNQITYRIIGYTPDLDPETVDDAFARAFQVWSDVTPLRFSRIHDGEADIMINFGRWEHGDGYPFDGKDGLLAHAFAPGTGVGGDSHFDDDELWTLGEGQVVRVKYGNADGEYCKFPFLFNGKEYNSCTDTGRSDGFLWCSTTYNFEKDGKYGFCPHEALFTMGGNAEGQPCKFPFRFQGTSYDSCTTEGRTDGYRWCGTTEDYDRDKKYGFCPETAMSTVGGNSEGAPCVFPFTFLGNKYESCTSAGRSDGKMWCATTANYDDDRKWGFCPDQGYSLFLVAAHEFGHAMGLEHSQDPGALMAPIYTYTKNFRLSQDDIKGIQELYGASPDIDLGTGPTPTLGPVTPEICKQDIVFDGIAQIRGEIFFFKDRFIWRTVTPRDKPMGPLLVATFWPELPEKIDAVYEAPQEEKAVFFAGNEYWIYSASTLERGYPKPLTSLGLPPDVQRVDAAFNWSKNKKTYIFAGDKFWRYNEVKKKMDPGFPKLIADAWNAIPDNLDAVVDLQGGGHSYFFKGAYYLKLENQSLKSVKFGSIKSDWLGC
Description: MMP-2 is easily prepared by standard procedures from the culture medium of cultivated human fibroblasts in reasonable quantities, and is therefore readily available. […] A screening system based on the measurement of the proteolytic activity of MMP-2 was developed to analyse the inhibitory effects of the various inhibitors described in Table 1.
To this end, human dermal fibroblasts were obtained and maintained in culture using standard methods. The cell-free culture supernatant containing the secreted pro-MMP-2 was treated with trypsin. The trypsin was inactivated with the specific active-site serine proteinase inhibitor Nα-p-tosyl-L-lysine-chloromethylketone (TLCK), and the active MMP-2 was partially purified by gel filtration on Sepharose 4B. The isolated MMP-2 was identified and characterized by the use of a commercially available immunoassay.
A simple nonradioactive assay was developed to measure MMP-2 activity using gelatin as a substrate that allows both a large number of samples to be analysed in parallel and to generate kinetic data. Partially purified MMP-2 was incubated with a suitable dilution of gelatin under standardized conditions (time, buffer, pH, temperature, inhibitor, additives), and uncleaved gelatin was separated from degradation products by suction filtration through a nitrocellulose filter. High-molecular-weight gelatin is thereby bound to the nitrocellulose filter, and the low-molecular-weight gelatin-derived peptides pass through it. The nitrocellulose-bound gelatin can be stained with Ponceau S or Commassie Brilliant Blue protein stains, and the degree of staining quantified densitometrically using a commercially available electrophoresis gel documentation system supported by dedicated analytical software. The nitrocellulose filtration is conducted using a commercially available dot- or slot-blotting apparatus.
The gelatinase assay described here has been validated by comparison with results obtained with an established collagenase assay using radioactive or fluorescently labeled collagen as substrate.
as §1
1984 μl assay buffer (100 mM Tris-HCl pH 7,5, 100 mM NaCl, 10 mM CaCl2, 0,05% Brij 35) • 2 μl inhibitor dissolved in DMSO, or DMSO alone as a solvent control • 4 μl enzyme (MMP-2, MMP-9, or the catalytic domain of MMP-8) • 10 μl Mca-Pro-Leu-Gly-Leu-Dap(Dnp)-Ala-Arg-NH2 in DMSO Method • 1. […]

[4] = target: T3, human matrix metalloproteinase-9 (MMP-9; gelatinase B) (Homo sapiens, UniProt P14780); assay: Inhibition of human matrix metalloproteinase-9 (gelatinase B); settings: trypsin-activated native MMP-9 from human buffy coat; read-out: MMP-9 (50% inhibition)
T3 construct: from tissue; host or cells: human buffy coat (blood leukocytes)
Description: Native MMP-9 was reproducibly obtained with reasonable yield and purity from human buffy coat. Buffy coat, to which was added an appropriate volume of 10% (v/v) Triton-X-100 to obtain a final concentration of 0,4% detergent, was shaken on ice for 30 min; then, one volume of twofold-concentrated binding buffer (40 mM Tris-HCl pH 7,5, 10 mM CaCl2, 1 M NaCl, 0,2% (v/v) Triton X-100 was added and the mixture shaken on ice for a further 30 min.
The mixture was then centrifuged for 15 min at 16,000 rpm (30,590×g) in a Kendro SS-34 rotor at 4° C. and the resulting supernatant filtered over glass wool. The filtrate was incubated batchwise with gelatin-agarose equilibrated in binding buffer for 1 h on ice with continuous shaking The MMP-9-bound gelatin-agarose was then loaded into a chromatographic tube and the column washed with at least ten bed volumes of binding buffer, or until no protein was detected by absorbance at 280 nm in the wash buffer. MMP-9 was eluted from the gelatin affinity column by application of two bed volumes of binding buffer containing 5% (v/v) dimethylsulfoxide (DMSO).
The eluate was applied to a gel filtration column of Sephadex G-75 both to exchange buffer and to eliminate small amounts of contaminating MMP-2. The G-75 column was prepared and eluted with Buffer I [20 mM Tris-HCl pH 7,5, 5 mM CaCl2, 100 mM NaCl, 0,1% (v/v) Triton X-100].
The eluted MMP-9 includes the three characterized forms of the enzyme: monomer, homodimer, and heterodimer (complex with lipokalin). The purity of MMP-9 was estimated to be ca. 90%, with the remaining contaminating protein being fibronectin and small amounts of TIMPS.
The latent MMP-9 was activated by a 30-60 min incubation at 37° C. with 1/100 vol trypsin (10 mg ml^−1). The trypsin was subsequently inactivated by addition of the serine proteinase inhibitor phenlymethylsulfonylfluoride (PMSF) or the more specific trypsin inhibitor TLCK.
as §1
as §2, with “Confirmation of the Inhibitory Activity by Protein Zymographic Analysis” left out

T1 sequence (P22894 100-262 limits assumed): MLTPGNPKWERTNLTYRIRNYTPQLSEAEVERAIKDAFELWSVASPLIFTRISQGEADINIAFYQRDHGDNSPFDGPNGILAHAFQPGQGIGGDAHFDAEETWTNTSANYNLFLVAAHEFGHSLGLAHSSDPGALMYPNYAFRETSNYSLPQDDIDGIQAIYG
T3 sequence (P14780 107-707 limits assumed): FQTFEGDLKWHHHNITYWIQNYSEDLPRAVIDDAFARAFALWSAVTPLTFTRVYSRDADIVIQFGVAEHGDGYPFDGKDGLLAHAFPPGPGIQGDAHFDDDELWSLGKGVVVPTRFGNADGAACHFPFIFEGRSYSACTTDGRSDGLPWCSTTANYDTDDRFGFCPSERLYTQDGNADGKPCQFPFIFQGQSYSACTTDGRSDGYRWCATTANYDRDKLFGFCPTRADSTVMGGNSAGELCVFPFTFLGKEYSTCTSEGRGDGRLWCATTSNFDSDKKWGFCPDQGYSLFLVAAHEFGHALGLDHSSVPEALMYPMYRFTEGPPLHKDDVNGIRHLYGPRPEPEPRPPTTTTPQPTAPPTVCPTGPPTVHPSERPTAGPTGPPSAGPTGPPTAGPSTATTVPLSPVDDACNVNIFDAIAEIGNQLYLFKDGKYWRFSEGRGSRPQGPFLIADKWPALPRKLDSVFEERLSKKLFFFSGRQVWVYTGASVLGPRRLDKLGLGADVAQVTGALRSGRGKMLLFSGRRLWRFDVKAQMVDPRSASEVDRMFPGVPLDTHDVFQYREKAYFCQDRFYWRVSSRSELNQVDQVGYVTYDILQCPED

Row | SMILES | Ki [1] [µM] | IC50 [2] [µM] | IC50 [3] [µM] | MMP-8 (Ki value) [1] | IC50 [4] [µM]
1 | CC(S)Cn1c(=O)[nH]c(=O)c2ccccc21 (racemic) [Example 1, (R,S)-1-(2-mercaptopropyl)-chinazolin-2,4(1H,3H)-dione] | 33.3 | 21 | 23.3 |  | 
2 | CC(CS)Cn1c(=O)[nH]c2ccccc2c1=O (racemic) [Example 19, (R,S)-3-[3-(2-methyl)-mercaptopropyl]chinazolin-2,4(1H,3H)-dione] | 3 |  | 7.1 |  | 
3 | CC(C)(S)Cn1c(=O)[nH]c(=O)c2ccccc21 [Example 2, 1-(2-mercapto-2-methylpropyl)-chinazolin-2,4(1H,3H)-dione] |  |  | 143 | negative | 
4 | Cn1c(=O)c2ccccc2n(CCS)c1=O [Example 6, 1-(2-mercaptoethyl)-3-methylchinazolin-2,4(1H,3H)-dione] |  | 13.1 | 97.1 | negative | 
5 | CCn1c(=O)c2ccccc2n(CCS)c1=O [Example 8, 3-ethyl-1-(2-mercaptoethyl)-chinazolin-2,4(1H,3H)-dione] |  | 39.4 |  | negative | 
6 | CCn1c(=O)c2ccccc2n(CCCS)c1=O [Example 9, 3-ethyl-1-(3-mercaptoprop-1-yl)-chinazolin-2,4(1H,3H)-dione] |  |  | 13.9 |  | 43.4
7 | COc1cc2c(=O)n(C)c(=O)n(CCS)c2cc1OC [Example 10, 6,7-dimethoxy-1-(2-mercaptoethyl)-3-methyl-chinazolin-2,4(1H,3H)-dione] |  | 31.5 | 6.3 |  | 
8 | O=c1c2ccccc2n(CCS)c(=O)n1Cc1ccccc1 [Example 11, 3-benzyl-1-(2-mercaptoethyl)-chinazolin-2,4(1H,3H)-dione] | 33.3 | 22.4 |  |  | 
9 | O=c1[nH]c2ccccc2c(=O)n1CCCCCS [Example 13, 3-(5-mercaptopent-1-yl)-chinazolin-2,4(1H,3H)-dione] | 20 |  |  |  | 
10 | Cn1c(=O)c2ccccc2n(CCCSCC(=O)NO)c1=O [Example 20, N-hydroxy-2-[3-(methyl-2,4-dioxo-3,4-dihydro-2H-chinazolin-1-yl)-propylsulfanyl]acetamide] |  |  |  |  | 71.4
